Values of other authors as cited in patent US6652866B1 (priority 1997, dated 2003).

Test system: scrapie
Details: hamsters

## C[C@@H]1[C@H](O)[C@@H](C)/C=C/C=C/C=C/C=C/C=C/C=C/C=C/[C@H](O[C@@H]2O[C@H](C)[C@@H](O)[C@H](N)[C@@H]2O)C[C@@H]2O[C@](O)(C[C@@H](O)C[C@@H](O)[C@H](O)CC[C@@H](O)C[C@@H](O)CC(=O)O[C@H]1C)C[C@H](O)[C@H]2C(=O)O [amphoteracin-b]
  incubation time of scrapie: prolonged the incubation time
  prevention of onset of neurological symptoms, neuronal destruction and death: ineffective
